According to ChEMBL document CHEMBL1201862, “PubChem BioAssay data set” (2004):
Calls of active or inactive are those of the source.

How the values were obtained:
[1] = Luminescence Cell-Based Dose Response HTS to Identify Inhibitors of Luciferase Translation or Activity in H4-C Neuroglioblastoma Cells. [Related pubchem assays: 1813 (Primary HTS), 1827 (Project Summary)]; format: functional
[2] = Luminescence Cell-Based Dose Response HTS to Identify Activators of Luciferase Translation or Activity in H4-C Neuroglioblastoma Cells. [Related pubchem assays: 1829 (Project Summary), 1814 (Primary HTS)]; format: functional
[3] = luciferase reporter signal suppression in cells – H4 neuroglioma cells, luminescence, dose response (AID 1990); format: functional, cell-based
[4] = Luminescence Cell-Based Dose Retest to Confirm Activators of 5'UTR Stem-Loop Driven Alpha-Synuclein mRNA Translation in H4 Neuroglioblastoma Cells. [Related pubchem assays (depositor defined):AID1813, AID1829]; format: functional
[5] = Luminescence Cell-Based Dose Response HTS to Identify Activators of 5'UTR Stem-Loop Driven Prion Protein mRNA Translation in H4-C Neuroglioblastoma Cells. [Related pubchem assays: 1829 (Project Summary), 1814 (Primary HTS)]; format: functional
[6] = Luminescence Cell-Based Dose HTS Response to Identify Inhibitors of 5'UTR Stem-Loop Driven Prion Protein mRNA Translation in H4-C Neuroglioblastoma Cells. [Related pubchem assays (depositor defined):AID1814, AID1827]; format: functional
BJ [7] = experiment: BJ-TERT fibroblast viability loss – cell-based, RAS-independent, luminescence, dose response (AID 1933); format: functional; conditions: Homo sapiens
[8] = Luminescence Cell-Based Dose Response HTS to Identify Inhibitors of 5'UTR Stem-Loop Driven Prion Protein mRNA Translation in H4 Neuroglioblastoma Cells. [Related pubchem assays: 1827 (Project Summary), 1813 (Primary HTS)]; format: functional
[9] = alpha-synuclein stem-loop luciferase translation blockers – H4 neuroglioma cells, luminescence, confirmation (AID 1988); format: functional, cell-based
BJ [10] = experiment: cells; format: functional, cell-based; conditions: Homo sapiens
[11] = Luminescence Cell-Based Dose Confirmation HTS to Identify Inhibitors of 5'UTR Stem-Loop Driven Alpha-Synuclein mRNA Translation in H4 Neuroglioblastoma Cells. [Related pubchem assays: 1827 (Project Summary), 1813 (Primary HTS)]; format: functional
BJ [12] = experiment: BJ-TERT-LT-ST fibroblast viability loss – cell-based, RAS-independent, luminescence, dose response (AID 1935); format: functional; conditions: Homo sapiens;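 note: BJ fibroblasts immortalized with TERT plus LT and ST oncogenes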
[13] = DRD fibroblast viability loss – cell-based, non-viral oncogenic, luminescence, dose response (AID 1934); format: functional; conditions: Homo sapiens
BJ [14] = experiment: growth inhibition of engineered Ras-driven BJ cells – cell-based, alamar blue fluorescence, cherrypicked samples, dose response (AID 2631); format: functional; conditions: Homo sapiens;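 note: confirmatory dose-response assay in RAS-dependent BJ fibroblasts engineered with TERT, LT and ST, with cytotoxicity read by fluorescence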
[15] = molecular target: G-protein coupled receptor 55 (Homo sapiens, UniProt Q9Y2T6); experiment: inhibition of LPI-stimulated GPR55 beta-arrestin translocation – imaging, U2OS, beta-arrestin-GFP, LPI agonist, primary screen (AID 2013); format: functional;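 note: antagonist potency measured as reduced agonist-driven arrestin aggregation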
Sequence of G-protein coupled receptor 55 (Q9Y2T6 whole entry): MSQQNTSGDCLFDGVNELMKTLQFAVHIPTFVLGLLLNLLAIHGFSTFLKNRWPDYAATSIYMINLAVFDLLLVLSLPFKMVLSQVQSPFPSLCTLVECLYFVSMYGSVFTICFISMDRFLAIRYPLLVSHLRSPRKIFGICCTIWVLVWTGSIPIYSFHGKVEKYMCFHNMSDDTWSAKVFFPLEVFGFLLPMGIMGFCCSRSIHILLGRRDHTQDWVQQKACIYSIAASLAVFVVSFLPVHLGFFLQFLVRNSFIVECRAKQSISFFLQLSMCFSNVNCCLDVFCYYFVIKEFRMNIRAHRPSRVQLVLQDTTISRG

[16] = viability of PTEN-deleted HCT116 cells – cell-based, HCT116 PTEN knockout, dose response (AID 1047); format: functional;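 note: HCT116 colon tumor cells with PTEN knocked out; cells exposed to compound for 60 hours before readout; potency for loss of cell viability measured by luminescence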
[17] = viability of HCT116 lacking mutant beta-catenin – cell-based, human colon tumor, dose response (AID 1045); format: functional;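 note: HCT116 colon tumor cells with beta catenin knocked out; cells exposed to compound for 60 hours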
Beta-galactosidase = Beta-galactosidase (Escherichia coli, UniProt Q8VNN2); experiment: detection-enzyme interference by beta-gal modulators – biochemical, E. coli enzyme, set 3, artefact control for CCR6 antagonist project, dose response (AID 504712); format: functional
[18] = molecular target: T1, Microphthalmia-associated transcription factor (Homo sapiens, UniProt O75030); experiment: reducers of TRPM1 reporter luminescence, concentration series – cell-based, SK-MEL-5, cherry-picked, set 3, MITF inhibitor project, dose response (AID 493073); format: functional;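 note: SK-MEL-5 melanoma cells with luciferase driven by the MITF target TRPM1 promoter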
T1 sequence (O75030 whole entry): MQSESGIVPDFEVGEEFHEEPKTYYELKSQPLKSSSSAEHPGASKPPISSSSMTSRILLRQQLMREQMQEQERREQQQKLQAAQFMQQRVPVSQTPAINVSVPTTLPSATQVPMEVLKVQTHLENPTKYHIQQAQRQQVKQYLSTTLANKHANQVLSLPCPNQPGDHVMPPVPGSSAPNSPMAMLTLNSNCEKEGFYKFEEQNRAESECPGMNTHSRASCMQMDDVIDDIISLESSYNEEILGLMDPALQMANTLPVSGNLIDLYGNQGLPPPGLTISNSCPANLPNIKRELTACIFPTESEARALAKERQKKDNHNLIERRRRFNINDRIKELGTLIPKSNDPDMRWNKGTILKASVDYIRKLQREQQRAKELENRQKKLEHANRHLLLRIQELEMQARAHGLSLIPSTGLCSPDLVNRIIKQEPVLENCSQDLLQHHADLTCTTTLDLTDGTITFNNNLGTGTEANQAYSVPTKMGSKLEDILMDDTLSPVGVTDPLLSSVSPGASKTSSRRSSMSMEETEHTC

[19] = molecular target: Alkaline phosphatase, placental type (Homo sapiens, UniProt P05187); experiment: human placental alkaline phosphatase inhibition – biochemical, luminescence, confirmation (AID 1512); format: functional
Sequence of Alkaline phosphatase, placental type (P05187 whole entry): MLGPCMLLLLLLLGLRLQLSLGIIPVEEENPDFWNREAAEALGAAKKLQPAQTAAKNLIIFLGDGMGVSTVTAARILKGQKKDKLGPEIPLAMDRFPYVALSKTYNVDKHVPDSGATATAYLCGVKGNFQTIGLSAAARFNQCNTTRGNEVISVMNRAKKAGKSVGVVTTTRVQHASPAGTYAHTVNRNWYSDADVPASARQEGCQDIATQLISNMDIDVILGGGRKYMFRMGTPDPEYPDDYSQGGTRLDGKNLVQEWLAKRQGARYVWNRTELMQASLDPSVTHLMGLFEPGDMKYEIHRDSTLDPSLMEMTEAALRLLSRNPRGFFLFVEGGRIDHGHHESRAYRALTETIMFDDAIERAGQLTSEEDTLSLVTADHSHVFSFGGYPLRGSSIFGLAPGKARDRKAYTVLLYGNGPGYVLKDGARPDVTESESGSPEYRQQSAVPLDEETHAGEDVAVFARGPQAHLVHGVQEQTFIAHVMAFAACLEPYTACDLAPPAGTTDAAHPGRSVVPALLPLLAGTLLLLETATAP

[20] = molecular target: T2, Alkaline phosphatase, tissue-nonspecific isozyme (Homo sapiens, UniProt P05186); experiment: potency against alkaline phosphatase TNAP – biochemical, luminescent, dose response, SAR follow-up (AID 1056)
T2 sequence (P05186 whole entry): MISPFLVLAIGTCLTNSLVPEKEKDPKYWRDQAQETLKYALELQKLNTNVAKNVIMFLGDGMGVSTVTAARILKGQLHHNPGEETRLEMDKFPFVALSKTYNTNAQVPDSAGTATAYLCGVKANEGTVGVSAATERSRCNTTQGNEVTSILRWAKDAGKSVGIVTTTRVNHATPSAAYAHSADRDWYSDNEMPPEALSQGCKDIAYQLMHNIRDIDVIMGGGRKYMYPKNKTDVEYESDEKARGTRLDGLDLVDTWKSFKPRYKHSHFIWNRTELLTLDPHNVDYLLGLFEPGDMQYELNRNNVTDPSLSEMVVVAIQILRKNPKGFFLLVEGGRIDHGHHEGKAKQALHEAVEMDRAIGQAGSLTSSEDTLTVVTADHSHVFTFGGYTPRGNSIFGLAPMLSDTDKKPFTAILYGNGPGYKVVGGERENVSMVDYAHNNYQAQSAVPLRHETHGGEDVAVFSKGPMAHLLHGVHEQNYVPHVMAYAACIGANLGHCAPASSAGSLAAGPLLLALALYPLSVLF

T-cell = experiment: loss of vesicle association with mouse CD8+ T cells – mouse 2C CD8+ T cells, flow cytometry, dose response (AID 485284); format: functional
Salmon testes DNA = experiment: acridine orange-DNA binding displacement – biochemical, fluorescence polarization, cherry-picked samples, set 2, artefact control for KSHV LANA DNA-binding inhibitor project, dose response (AID 504727); set-up: species or system Salmonidae
ORF 73 = ORF 73 (Human herpesvirus 8, UniProt O40947); experiment: KSHV LANA DNA-binding disruption – biochemical, fluorescence polarization, cherry-picked samples, dose response (AID 504725); set-up: species or system Human gammaherpesvirus 8;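 note: fluorescence polarization of a labeled DNA duplex reporting LANA DNA binding; potency is for inhibitors that block LANA binding to the DNA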
[21] = molecular target: T3, Voltage-gated N-type calcium channel alpha-1B subunit/Amyloid beta A4 precursor protein-binding family A member 1 (Homo sapiens, UniProt Q00975+Q02410); format: protein assay
T3 sequence (Q00975 whole entry): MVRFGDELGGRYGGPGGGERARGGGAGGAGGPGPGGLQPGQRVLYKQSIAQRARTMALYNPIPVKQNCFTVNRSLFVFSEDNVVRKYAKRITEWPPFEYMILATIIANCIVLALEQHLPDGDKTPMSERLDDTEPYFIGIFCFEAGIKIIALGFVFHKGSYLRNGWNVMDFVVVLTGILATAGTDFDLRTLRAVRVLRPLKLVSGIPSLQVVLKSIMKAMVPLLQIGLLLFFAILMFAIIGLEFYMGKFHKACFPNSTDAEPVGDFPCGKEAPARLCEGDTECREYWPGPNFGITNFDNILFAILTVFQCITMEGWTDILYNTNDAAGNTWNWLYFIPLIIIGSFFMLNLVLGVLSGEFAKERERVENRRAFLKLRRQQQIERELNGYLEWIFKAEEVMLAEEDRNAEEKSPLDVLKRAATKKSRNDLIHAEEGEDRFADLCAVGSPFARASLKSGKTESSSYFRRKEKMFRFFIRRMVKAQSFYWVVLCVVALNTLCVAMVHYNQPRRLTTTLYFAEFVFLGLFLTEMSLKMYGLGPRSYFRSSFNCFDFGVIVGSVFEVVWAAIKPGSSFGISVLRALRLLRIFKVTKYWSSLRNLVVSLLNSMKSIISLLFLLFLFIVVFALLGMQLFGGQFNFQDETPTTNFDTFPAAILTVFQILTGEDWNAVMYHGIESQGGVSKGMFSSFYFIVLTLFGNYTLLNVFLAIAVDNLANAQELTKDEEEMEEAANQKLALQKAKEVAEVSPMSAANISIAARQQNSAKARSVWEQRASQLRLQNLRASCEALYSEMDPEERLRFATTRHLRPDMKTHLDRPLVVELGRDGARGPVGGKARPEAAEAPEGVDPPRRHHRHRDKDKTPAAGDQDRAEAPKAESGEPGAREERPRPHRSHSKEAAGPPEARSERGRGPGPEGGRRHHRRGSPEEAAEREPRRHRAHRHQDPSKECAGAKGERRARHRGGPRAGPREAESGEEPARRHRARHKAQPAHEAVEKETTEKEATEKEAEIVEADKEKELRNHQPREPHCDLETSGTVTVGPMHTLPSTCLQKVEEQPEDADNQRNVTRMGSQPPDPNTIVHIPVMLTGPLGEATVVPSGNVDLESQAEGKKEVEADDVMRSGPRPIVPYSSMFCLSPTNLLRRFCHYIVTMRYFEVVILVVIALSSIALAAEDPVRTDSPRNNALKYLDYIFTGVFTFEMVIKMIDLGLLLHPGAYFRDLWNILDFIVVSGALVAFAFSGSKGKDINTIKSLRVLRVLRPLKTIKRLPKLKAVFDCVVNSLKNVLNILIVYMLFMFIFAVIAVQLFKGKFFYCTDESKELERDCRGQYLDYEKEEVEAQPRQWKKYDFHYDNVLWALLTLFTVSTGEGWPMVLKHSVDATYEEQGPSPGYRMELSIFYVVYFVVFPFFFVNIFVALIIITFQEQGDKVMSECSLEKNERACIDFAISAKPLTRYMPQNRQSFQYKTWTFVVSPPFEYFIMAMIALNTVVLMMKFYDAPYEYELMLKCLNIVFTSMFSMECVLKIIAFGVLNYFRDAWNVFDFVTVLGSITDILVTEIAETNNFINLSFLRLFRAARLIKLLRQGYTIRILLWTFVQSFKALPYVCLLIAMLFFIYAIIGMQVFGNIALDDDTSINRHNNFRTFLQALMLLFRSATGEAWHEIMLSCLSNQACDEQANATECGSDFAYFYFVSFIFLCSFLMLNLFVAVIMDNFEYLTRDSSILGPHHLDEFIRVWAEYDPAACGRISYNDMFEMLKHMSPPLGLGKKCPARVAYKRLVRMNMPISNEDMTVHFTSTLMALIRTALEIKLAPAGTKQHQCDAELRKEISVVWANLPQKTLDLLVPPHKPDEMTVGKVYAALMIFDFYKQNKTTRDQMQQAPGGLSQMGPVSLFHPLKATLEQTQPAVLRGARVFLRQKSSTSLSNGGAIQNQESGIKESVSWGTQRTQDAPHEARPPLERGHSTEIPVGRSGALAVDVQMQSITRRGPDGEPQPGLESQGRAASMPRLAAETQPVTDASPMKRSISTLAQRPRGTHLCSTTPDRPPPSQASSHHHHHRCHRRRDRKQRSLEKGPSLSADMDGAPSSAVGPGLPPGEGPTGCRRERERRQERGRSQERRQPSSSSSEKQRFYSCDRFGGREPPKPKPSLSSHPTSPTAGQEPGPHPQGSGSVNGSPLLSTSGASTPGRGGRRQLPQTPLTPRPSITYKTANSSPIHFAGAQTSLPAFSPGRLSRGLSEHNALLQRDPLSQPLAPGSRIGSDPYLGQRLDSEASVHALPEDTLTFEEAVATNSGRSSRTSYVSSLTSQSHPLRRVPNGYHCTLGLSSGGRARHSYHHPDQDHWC
T3 sequence (Q02410 whole entry): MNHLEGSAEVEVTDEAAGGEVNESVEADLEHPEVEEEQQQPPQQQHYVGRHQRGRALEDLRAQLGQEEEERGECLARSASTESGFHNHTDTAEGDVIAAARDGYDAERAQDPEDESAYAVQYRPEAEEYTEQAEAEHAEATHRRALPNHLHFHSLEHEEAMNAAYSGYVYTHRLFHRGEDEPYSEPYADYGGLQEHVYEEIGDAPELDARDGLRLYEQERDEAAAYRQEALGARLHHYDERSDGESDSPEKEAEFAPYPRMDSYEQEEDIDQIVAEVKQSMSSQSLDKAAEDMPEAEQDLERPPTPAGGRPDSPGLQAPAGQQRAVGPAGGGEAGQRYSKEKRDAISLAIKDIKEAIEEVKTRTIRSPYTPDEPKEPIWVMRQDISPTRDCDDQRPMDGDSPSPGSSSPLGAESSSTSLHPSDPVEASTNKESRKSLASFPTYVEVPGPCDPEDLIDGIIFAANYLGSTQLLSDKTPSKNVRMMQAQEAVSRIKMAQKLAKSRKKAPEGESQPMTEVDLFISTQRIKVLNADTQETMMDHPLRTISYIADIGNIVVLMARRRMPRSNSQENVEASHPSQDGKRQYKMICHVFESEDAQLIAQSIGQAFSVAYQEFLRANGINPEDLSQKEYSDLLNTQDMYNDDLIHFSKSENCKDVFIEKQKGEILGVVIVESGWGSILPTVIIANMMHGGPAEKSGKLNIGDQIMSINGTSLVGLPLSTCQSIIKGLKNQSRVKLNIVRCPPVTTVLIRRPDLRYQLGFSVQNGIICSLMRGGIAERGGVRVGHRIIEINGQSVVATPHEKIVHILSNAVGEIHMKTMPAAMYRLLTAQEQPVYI

[22] = molecular target: T3, Voltage-gated N-type calcium channel alpha-1B subunit/Amyloid beta A4 precursor protein-binding family A member 1; format: protein assay; remark: listed apart in the source
[23] = molecular target: T4, E3 ubiquitin-protein ligase XIAP (Homo sapiens, UniProt P98170); experiment: Counter Screen using XIAP-Bir3 for Chemical Antagonists of Bir1/2 domains of IAP-family anti-apoptotic proteins. [Related pubchem assays (depositor defined):AID1018, AID1449, AID1514, AID1638, AID1749, AID1750, AID488957, AID488963]
T4 sequence (P98170 whole entry): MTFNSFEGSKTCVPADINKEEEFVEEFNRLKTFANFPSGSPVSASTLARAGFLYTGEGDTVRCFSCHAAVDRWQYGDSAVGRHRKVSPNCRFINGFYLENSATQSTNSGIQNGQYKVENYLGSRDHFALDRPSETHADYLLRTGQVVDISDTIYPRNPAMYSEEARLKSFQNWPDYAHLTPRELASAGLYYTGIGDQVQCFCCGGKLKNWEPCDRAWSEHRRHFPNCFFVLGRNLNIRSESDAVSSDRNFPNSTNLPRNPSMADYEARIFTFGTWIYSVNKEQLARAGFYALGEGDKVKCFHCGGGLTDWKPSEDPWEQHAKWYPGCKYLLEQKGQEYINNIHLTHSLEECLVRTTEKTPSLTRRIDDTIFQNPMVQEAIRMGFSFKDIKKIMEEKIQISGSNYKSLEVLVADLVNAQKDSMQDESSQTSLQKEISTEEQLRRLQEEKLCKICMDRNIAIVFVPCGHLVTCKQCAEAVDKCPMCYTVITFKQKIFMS

[24] = molecular target: T4, E3 ubiquitin-protein ligase XIAP; experiment: small molecules displacing peptide from XIAP – biochemical, IAP family, fluorescence polarization (AID 1018); format: functional
Saccharomyces cerevisiae = experiment: S. cerevisiae Caspase-1/ASC signal blockers IC50, NALP1 inhibitor project selectivity test (AID 488863); format: functional, organism-based
[25] = molecular target: NACHT, LRR and PYD domains-containing protein 1 (Homo sapiens, UniProt Q9C000); experiment: NALP1 inhibitors in yeast, dose response, luminescent (AID 488860); format: functional
[26] = test system: Streptococcus sp. 'group A'; experiment: Streptococcus pyogenes SK(-)GAS viability under kanamycin – luminescence, BacTiterGlo, confirmation, counter-screen for streptokinase expression inhibitor project, dose response (AID 1900); format: functional, organism-based
[27] = Trypanosoma cruzi growth suppression in host cells – NIH3T3 host cells, beta-gal luminescence, confirmation (AID 2044); format: functional, cell-based;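 note: intracellular parasites grown in NIH/3T3 mouse fibroblasts as host cells; luminescent beta-galactosidase reporter signal from transgenic T. cruzi replicating inside host cells; inhibitors lower the luminescence signal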
[28] = NIH3T3 cell viability loss – ATP luminescence, mouse fibroblasts, counter-screen, dose response (AID 2010); format: functional, cell-based;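 note: cells exposed to compound for about 90 hours before reading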
Streptococcus = experiment: GAS UMAA2166 growth inhibition – luminescence, BacTiterGlo, counter-screen for streptokinase expression inhibitor project, dose response (AID 1915); format: functional, organism-based;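 note: potency for reduction of bacterial viability or growth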
H9c2 = experiment: cells; format: functional, cell-based; conditions: Rattus norvegicus, H9c2, Myocardium;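 note: confirmatory concentration-response retest of ultra-high-throughput screening hits for modulation of myocardial damage; cell death induced by hydrogen peroxide oxidative stress; compound pretreatment for 60 min then peroxide exposure for 2 h; potency is for protecting the cells against peroxide damage rather than for killing them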
Trypsin = Trypsin (Sus scrofa, UniProt P00761); experiment: trypsin protease activity blockade – biochemical, quenched peptide fluorescence, cherry-pick, selectivity assay for Rce1 protease inhibitor project, dose response (AID 488789)
Sequence of Trypsin (P00761 whole entry): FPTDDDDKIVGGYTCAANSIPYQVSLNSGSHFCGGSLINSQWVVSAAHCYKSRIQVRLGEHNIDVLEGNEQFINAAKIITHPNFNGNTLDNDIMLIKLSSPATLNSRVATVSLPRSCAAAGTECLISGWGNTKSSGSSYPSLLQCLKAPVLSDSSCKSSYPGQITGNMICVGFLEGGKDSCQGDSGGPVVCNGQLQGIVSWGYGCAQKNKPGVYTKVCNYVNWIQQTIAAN

CAAX prenyl protease 2 = CAAX prenyl protease 2 (Saccharomyces cerevisiae S288c, UniProt Q03530); format: biochemical
Sequence of CAAX prenyl protease 2 (Q03530 whole entry): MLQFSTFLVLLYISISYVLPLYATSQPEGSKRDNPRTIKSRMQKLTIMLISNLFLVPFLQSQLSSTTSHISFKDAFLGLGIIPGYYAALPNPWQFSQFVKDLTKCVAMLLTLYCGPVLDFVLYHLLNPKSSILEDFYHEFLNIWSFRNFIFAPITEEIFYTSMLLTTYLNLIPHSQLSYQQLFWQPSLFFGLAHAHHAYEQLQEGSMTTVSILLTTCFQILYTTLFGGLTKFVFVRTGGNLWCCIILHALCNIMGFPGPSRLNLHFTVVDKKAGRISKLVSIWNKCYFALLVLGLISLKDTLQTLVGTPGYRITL

Compound: COC(=O)C1CC23C=CCN4CCC5(c6ccccc6NC15C2C)C43 (stereo unspecified)
- EC50 [1]: 1.07 µM (active)
- EC50 [2]: 1.07 µM (inconclusive)
- EC50 [3]: 4.2 µM (active)
- EC50 [4]: 7.37 µM (inconclusive)
- EC50 [5]: 1.13 µM (inconclusive)
- EC50 [6]: 1.13 µM (active)
- EC50 (BJ [7]): 0.612 µM (active)
- EC50 [8]: 2.28 µM (active)
- EC50 [9]: 0.134 µM (active)
- EC50 (BJ [10]): 7.77 µM (active)
- EC50 [11]: 7.37 µM (active)
- EC50 (BJ [12]): 0.574 µM (inconclusive)
- EC50 [13]: 0.495 µM (active)
- EC50 (BJ [14]): < 0.104 µM (active)

Compound: CC1=NOC(=O)/C1=C\c1ccc(-c2cccc(Cl)c2)o1
- IC50 [15]: 8.52 µM (active)
- EC50 [16]: 14.5 µM (active)
- EC50 [17]: 11.8 µM (active)
- IC50 (Beta-galactosidase): > 66.6 µM (inactive)
- AC50 [18]: 5.36 µM (active)

Compound: Cc1cccc(-c2nc3c(c(SCC(=O)c4ccc(O)c(O)c4)n2)CCCC3)c1
- IC50 [19]: > 100 µM (inactive)
- IC50 [20]: 78.5 µM (active)

Compound: COC(=O)c1ccccc1NC(=O)C1CCN(C(=O)c2cc(OC)cc(OC)c2)CC1
- EC50 (T-cell): 0.641 µM (active)

Compound: O=C(NC12CC3CC(CC(C3)C1)C2)N1CCN(c2ncccn2)CC1
- AC50 (Salmon testes DNA): 210 µM (active)
- AC50 (ORF 73): 81.5 µM (active)

Compound: CCOC(=O)c1cc(C#N)c(Oc2ccc(F)cc2)nc1-c1ccccc1
- IC50 [15]: 3.03 µM (active)

Compound: CC1=C(C(=O)O)N2C(=O)C(NC(=O)CCCC(=O)O)C2SC1 (stereo unspecified)
- IC50 [21]: > 56.8 µM (not active)
- IC50 [22]: > 50 µM (inactive)

Compound: CC(=O)O[C@@]12CO[C@@H]1C[C@H](O)[C@@]1(C)C(=O)[C@H](O)C3=C(C)[C@@H](OC(=O)[C@H](O)[C@@H](NC(=O)c4ccccc4)c4ccccc4)C[C@](O)([C@@H](OC(=O)c4ccccc4)[C@H]21)C3(C)C
- EC50 [1]: 0.692 µM (active)
- EC50 [2]: 73.1 µM (inconclusive)
- EC50 [5]: 2.02 µM (inconclusive)
- EC50 [6]: 2.4 µM (active)
- EC50 [11]: 2.3 µM (active)

Compound: CCOc1ccccc1NC(=O)C1=C(C)NC(=S)NC1c1cccs1 (stereo unspecified)
- IC50 [23]: > 100 µM (inactive)
- IC50 [24]: > 100 µM (not active)

Compound: COc1ccc(-n2c(SCC(=O)c3ccc(O)c(O)c3)nnc2-c2ccc(C)cc2)cc1
- IC50 [19]: 5.84 µM (active)
- IC50 [20]: > 100 µM (inactive)

Compound: CC(=O)c1ccc(NC(=O)Nc2ccc(Cl)cc2)cc1
- IC50 (Saccharomyces cerevisiae): 2.98 µM (active)
- IC50 [25]: 35.9 µM (active)

Compound: COc1ccc2c(C)cc(SCC(=O)Nc3ccc(Cl)cn3)nc2c1
- IC50 [23]: > 100 µM (inactive)
- IC50 [24]: > 100 µM (not active)

Compound: Cc1cc(C)c(OCC(=O)Nc2nc(-c3ccccn3)cs2)c(C)c1
- EC50 [26]: 2.75 µM (active)
- EC50 [27]: 2.47 µM (active)
- EC50 [28]: 8.87 µM (active)
- EC50 (Streptococcus): 5.71 µM (active)
- IC50 (Beta-galactosidase): > 66.6 µM (inactive)
- IC50 (H9c2): 10 µM (active)

Compound: COc1ccc(C2CC(c3ccccc3)=NN2C(=O)c2ccc(Cl)c([N+](=O)[O-])c2)cc1 (stereo unspecified)
- EC50 [28]: 32.6 µM (active)
- AC50 (Trypsin): 77.7 µM (active)
- AC50 (CAAX prenyl protease 2): 26.1 µM (active)

Compound: CCN(C(=O)COC(=O)c1cccnc1Nc1cccc(C(F)(F)F)c1)C1CCS(=O)(=O)C1 (stereo unspecified)
- IC50 (Saccharomyces cerevisiae): > 100 µM (inactive)
- IC50 [25]: > 100 µM (inactive)
